# Values of other authors as cited in US5691376A, “Substituted biphenyl derivatives” (American Home Products Corporation, priority 1996, dated 1997).
# Columns and labels:
# [1] = test system: humoral (IgE-like) antibodies; settings: albumin allergic challenge; Martel 1977; cited from earlier work
# murine T-cell = settings: Strauch 1989; cited from earlier work
smiles,measurement,setting,value
CO[C@H]1C[C@@H]2CC[C@@H](C)[C@@](O)(O2)C(=O)C(=O)N2CCCC[C@H]2C(=O)O[C@H]([C@H](C)C[C@@H]2CC[C@@H](O)[C@H](OC)C2)CC(=O)[C@H](C)/C=C(\C)[C@@H](O)[C@@H](OC)C(=O)[C@H](C)C[C@H](C)/C=C/C=C/C=C/1C [Rapamycin],prevention of formation of humoral (IgE-like) antibodies,[1],prevent the formation of humoral (IgE-like) antibodies in response to an albumin allergic challenge
same,inhibition of T-cell activation,murine T-cell,inhibit murine T-cell activation
